Results reported in the pKa sets of Baltruschat and Czodrowski (2020).
Where a SMILES comes first, the peptide text is derived from it.

Conditions: acidic group

SMILES | pKa
O=C(O)COc1ccc([N+](=O)[O-])cc1 | 2.89
O=Cc1cccc(B(O)O)c1 | 7.8
CC(=O)[n+]1cccc(C)c1 | 5.81
O=C(CC(=O)c1ccccc1)Nc1ccccc1[N+](=O)[O-] | 9.54
N#CC(C#N)=NNc1ccccc1[N+](=O)[O-] | 5.8
C/C(=C/Cl)C(=O)O | 3.05
O=C1CCC(Cl)C1=O (configuration not stated) | 7.05
CC(C)(C)OO | 12.8
Cc1ccc(NN=C(C#N)C#N)cc1 | 6.75
C[n+]1cccc2c3ccccc3[nH]c21 | 7.4
O=C(O)/C=C/C(=O)c1ccccc1 | 3.34
CCCc1c(-c2ccccc2)nn(-c2ccccc2)c1O | 7
Cc1ccc(OCC(=O)O)cc1 | 3.15
O=C(O)C#CBr | 1.9
CCCCSCC(=O)O | 3.81
CC(C)S(=O)O | 2.3
Cc1nn(C)c(O)c1-c1ccccc1 | 10.9
CC1(C)S[C@H]2C(C(=O)[O-])[NH+]=C(CCCC([NH3+])C(=O)[O-])N2C1C(=O)O (some centres not stated) | 3.1
O=C1C[C@@H](C(=O)O)[C@@H](C(=O)[O-])O1 | 4.5
COc1cnccc1C(O)O | 11.7
Oc1ccc2cnc3ccccc3c2c1 | 8.43
O=[N+]([O-])/C(=N/O)c1ccc(Cl)cc1 | 6.6
CCCC(C)C1C(=O)NC(=S)N=C1[O-] (configuration not stated) | 11.4
O=C1Nc2ccccc2C1=O | 11.9
Oc1cccc(-c2ccccc2)c1 | 9.59
Cc1cccc(C[N+](=O)[O-])c1 | 6.97

SMILES | pKa
CC(C)c1cccc2ccc(O)cc12 | 9.52
CCN(CC)CC(=N\O)/C(C)=N/O | 10.7
c1ccc(CNc2ncnc3[nH]ncc23)cc1 | 10.9
COc1ccccc(=O)c1O | 8
CCCC[NH+](CCS)CCCC | 7.76
O=[N+]([O-])c1ccc[nH]1 | 10.6
C[C@@]12CC(=O)N[C@]1(CCC(=O)O)C(=O)NC2=O | 4.4
Oc1c2c(nn1-c1ccccc1)CCCC2 | 11.4
O=C(O)c1ccc2sc(Cn3cc[nH+]c3)cc2c1 | 3.9
O=[N+]([O-])Cc1cccc(Cl)c1 | 6.63
COc1cc(C)nc(-n2nc(C)cc2O)n1 | 6.9
Cc1cc(C(N)=O)cc(C)[n+]1O | 2.08
O=C1O[C@@H]([C@H](O)CO)C([O-])=C1O | 11.6
CC(=O)NO | 9.07
O=C(O)[C@@H]1CC[C@@H](C(=O)O)[Se]1 | 3.46
Cc1ccc(NN=C(C#N)C#N)c([N+](=O)[O-])c1 | 6
O=C(O)c1cccccc1=O | 3.73
O=C(O)c1ccc([N+](=O)[O-])cc1O | 1.83
NC(=O)/C(=N/O)c1ccccc1 | 9.55
[O-]c1ccc(O)cc1Br | 10.7
O=C(O)C1CC1 | 4.83
c1nnn[nH]1 | 4.84
Cc1ccc2ccc(O)cc2c1 | 9.52
CC(C)(C(=O)O)C(C#N)c1ccccc1 (configuration not stated) | 3.95
N#CC(C#N)=NNc1ccccc1Cl | 5.84

Same assay, conditions: basic group

SMILES | pKa
NCCNCc1ccccc1 | 9.41
C[NH+](C)c1ccc(N)cc1 | 3.73
CCCCSC1=NCCN1 | 9
Cn1cnc2nc(N)nc([O-])c21 | 8.43
O=[N+]([O-])c1ccc2[nH]c(C(F)(F)F)nc2c1 | 0.18
Cc1ccnc(-c2cc(C)ccn2)c1 | 5.32
N#CC(C#N)=NNc1ccccc1[N+](=O)[O-] | -0.76
c1ccc(-c2cc[nH+]cc2)nc1 | 1.19
Nc1cccc(I)c1 | 3.59
O=C(CCNCCC(=O)c1ccccc1)c1ccccc1 | 8.69
Cc1ccc(NN=C(C#N)C#N)cc1 | -0.83
N#CC1CN2CCC1CC2 (configuration not stated) | 7.85
CC(O)CNCCN (configuration not stated) | 9.86
Cc1ccc2c(c1)N1CCN2CC1 | 5.83
CCC(C)(C)NC1CCCCC1 | 11.2
CN(CCC[NH+](C)C)CCC[NH+](C)C | 6.4
NC(Cc1cccnc1)C(=O)[O-] (configuration not stated) | 9.26
O=[N+]([O-])c1ccc2[nH]c(-c3ccco3)nc2c1 | 2.64
Cc1cnc2c(c1)c(C)c(C)c1cccnc12 | 5.34
CO[C@H]1C=CC2=CCN3CCC(CO)=C(CCO)[C@]23C1 | 7.8
NNC(=O)c1cccc([NH3+])c1 | 2.57
Cc1ccc(/C(N)=N/O)cc1 | 5.14
[NH3+][C@@H](Cc1c[nH]cn1)C(=O)N[C@@H](Cc1c[nH]cn1)C(=O)[O-] | 6.8
COc1cc(S(C)=O)ccc1-c1nc2cnccc2[nH]1 (configuration not stated) | 6.16
Clc1ccc(C2NCCS2)cc1 (configuration not stated) | 5.01
C[NH+](C)CCNCC[NH3+] | 4.36

SMILES | pKa
CN(C)CCC/N=C(\c1ccccc1)c1ccc2ccccc2c1 | 9.2
N[C@H]1CC(=O)NC1=O | 9
Cc1cc(N)cc[n+]1[O-] | 4.1
C1CNCCSCCN1 | 10
C[C@H](N)C(=O)N[C@@H](Cc1c[nH]cn1)C(=O)[O-] (H-Ala-His-OH) | 8.08
CCCCCCCCCCCCN(CC(C)O)CC(C)O (configuration not stated) | 7.8
CCOCCN(CCOCC)c1ccccc1 | 4.1
ClC1CN2CCC1CC2 (configuration not stated) | 8.79
[O-]c1[nH+]cncc1O | 1.99
Oc1ccc2cnc3ccccc3c2c1 | 5.35
CC1(C)CN1 | 5.37
c1ccc(-c2ccc3ccc4cccnc4c3n2)cc1 | 4.9
CC(C)SCCN | 9.23
CCOc1ccccc1N | 4.51
NC(=O)/C=C(\O)c1cccnc1 | 8.01
c1ccc(CNc2ncnc3[nH]ncc23)cc1 | 4.16
N[C@@H]1CCCC[C@@H]1N | 9.84
Cc1cc2c(cc1N)Sc1cc(N(C)C)ccc1N2 | 5.41
Nc1cccc2cc([N+](=O)[O-])ccc12 | 3.15
NCCC[NH3+] | 8.77
CC(=O)N1CCN(C)CC1 | 7.1
C1CN=C2NCCC2C1 (configuration not stated) | 11.7
Cc1ncc2nc(C)c(C)nc2n1 | 3.76
O=[N+]([O-])c1ccc(/C=N/c2ncccn2)cc1 | 3.12
CSC(=N)Nc1ccccc1 | 7.14
O=[N+]([O-])c1cccc2nc3ccccc3c(NCCO)c12 | 7.2

SMILES | pKa
Nc1ccc(-c2nc3ccccc3s2)cc1 | 3
CNC(=O)c1ccncc1 | 3.8
CC(CC[NH+](C)C)NN (configuration not stated) | 5.9
c1cc(N2CCCC2)c2c(N3CCCC3)cccc2c1 | 9.97
COc1cc(C[NH3+])c(C)cc1N | 4.26
Cc1ccccc1/C=C/c1ccc(N(C)C)cc1 | 4.59
CCc1ccncc1 | 5.94
O[C@H]1[C@H](O)[C@@H](n2cnc3ccccc32)OC[C@@H]1O | 3.92
ClCC1CN2CCC1CC2 (configuration not stated) | 10.2
N#CC1=CN2CCC1CC2 | 5.84
C#CCNc1ccccc1 | 3.06
CC(CC(C#N)(c1ccccc1)c1ccccc1)N1CCCCC1 (configuration not stated) | 7.73
O=C1C=CN2C[C@@H]3C[C@@H](CN4CCCC[C@H]34)[C@@H]2C1 | 9.25
Cc1ccc(NN=C(C#N)C#N)c([N+](=O)[O-])c1 | -0.78
c1ccc2c(c1)C1CCN2CC1 | 7.79
[S-]c1ncc2nccnc2n1 | 6.52
Brc1cnc2ccccc2c1 | -0.44
CN1CCC2=C(C1)C(c1ccccc1)c1ccccc12 (configuration not stated) | 8.29
Cc1cc(-c2cc(C)n[nH]2)[nH]n1 | 2.8
Cc1cnc2c([S-])ncnc2n1 | 7.02
Cn1c(=O)n(C)c2c(N)cccc21 | 3.06
COc1ccc(-c2cnc(-c3ccccc3)o2)cc1 | 1.05
c1ccc(-c2cccnc2)nc1 | 4.42
N#CC(C#N)=NNc1ccccc1Cl | -0.77
